Active and inactive are the calls of the source. The rule behind the calls is not given here.
Key:
[1] = Stability in human liver microsomes assessed as half life incubated in presence of NADPH by LC-MS/MS analysis; format: ADME, Microsome
[2] = Oral bioavailability in Kunming mouse at 20 mg/kg by LC-MS/MS analysis; format: ADME, organism-based; conditions: in vivo
[3] = Cytotoxicity against African green monkey Vero cells assessed as reduction in cell viability measured after 48 hrs; format: toxicity, cell-based, Chlorocebus sabaeus
[4] = molecular target: Sodium channel protein type 5 subunit alpha (Homo sapiens, UniProt Q14524); experiment: Inhibition of human Nav1.5 expressed in CHO cells by manual patch clamp method; format: toxicity, cell-based
DU-145 [5] = experiment: Induction of apoptosis in human DU-145 cells assessed as dead cells at 0.03 uM incubated for 48 hrs by Annexin V-FITC/PI staining based flow cytometry analysis (reference value: 1.05%); format: functional
[6] = Mutagenicity in Salmonella typhimurium TA-97 at 0.5 to 500 ug per plate incubated for 72 hrs in presence or absence of S9 fraction by Ames test; format: toxicity, Salmonella enterica subsp. enterica serovar Typhimurium; conditions: in vivo, dose 0.5-500 µg
B16-F10 [7] = experiment: Antiproliferative activity against mouse B16-F10 cells assessed as inhibition of cell growth incubated for 72 hrs by MTT assay; format: functional, cell-based; conditions: B16-F10, 72 h
A549 [8] = experiment: cells; conditions: Homo sapiens, A549, 72 h
HCT-8 = experiment: Antiproliferative activity against human HCT-8 cells assessed as inhibition of cell growth incubated for 72 hrs by MTT assay; format: functional, cell-based; conditions: HCT-8, 72 h
SW1990 = experiment: Antiproliferative activity against human SW1990 cells assessed as inhibition of cell growth incubated for 72 hrs by MTT assay; format: functional, cell-based; conditions: SW1990, 72 h
DU-145 [9] = experiment: Induction of apoptosis in human DU-145 cells assessed as late apoptotic cells at 0.1 uM incubated for 48 hrs by Annexin V-FITC/PI staining based flow cytometry analysis (reference value: 2.05%); format: functional
Tubulin (Homo sapiens) [10] = molecular target: T1, Tubulin (Homo sapiens) (UniProt P68371+Q9H4B7+P0DPH7+P68366+Q13509+Q71U36+P04350+Q3ZCM7+P07437+P68363+Q9BQE3+Q6PEY2+Q13885+Q9BVA1+Q9BUF5); experiment: Disruption of microtubule network in human DU-145 cells assessed as reduction in acetyl-alpha tubulin expression by Western blot analysis; format: cell-based; conditions: dose 0.03-0.3 µM
[11] = Stability in dog liver microsomes assessed as half life incubated in presence of NADPH by LC-MS/MS analysis; format: ADME, Canis lupus familiaris, Microsome
DU-145 [12] = experiment: Antitumor activity against human DU-145 cells xenografted in BALB/c nude mouse assessed as tumor growth inhibition at 10 mg/kg, po administered once daily and measured twice a week relative to control; format: functional; conditions: read-out: TGI
[13] = Resistance index, ratio of IC50 for antiproliferative activity against paclitaxel-resistant human A549 cells to IC50 for antiproliferative activity against human A549 cells; format: functional
DU-145 [14] = experiment: Induction of apoptosis in human DU-145 cells assessed as dead cells at 0.3 uM incubated for 48 hrs by Annexin V-FITC/PI staining based flow cytometry analysis (reference value: 1.05%); format: functional
Bos taurus = organism: Bos taurus; experiment: Inhibition of bovine brain tubulin polymerization measured every 30 secs by absorbance based analysis; conditions: dose 1-10 µM, time 30.0 sec, DDE = dose-dependent effect
DU-145 [15] = experiment: Antiproliferative activity against human DU-145 cells assessed as inhibition of cell growth incubated for 96 hrs by real-time cell analysis; format: functional, cell-based; conditions: DU-145, 96 h
A549 [16] = experiment: Antitumor activity against paclitaxel-resistant human A549 cells xenografted in BALB/c nude mouse assessed as tumor growth inhibition at 20 mg/kg, po administered once daily and measured twice a week relative to control; format: functional; conditions: read-out: TGI
B16-F10 [17] = experiment: Antitumor activity against mouse B16-F10 cells implanted in C57BL/6 mouse assessed as tumor growth inhibition at 20 mg/kg, po administered once daily and measured twice a week relative to control; format: functional; conditions: read-out: TGI
NCI-H1299 = experiment: Antitumor activity against human NCI-H1299 cells xenografted in BALB/c nude mouse assessed as suppression of tumor growth at 20 mg/kg, po administered once daily and measured twice a week relative to control; format: functional
DU-145 [18] = experiment: Induction of apoptosis in human DU-145 cells assessed as early apoptotic cells at 0.03 uM incubated for 48 hrs by Annexin V-FITC/PI staining based flow cytometry analysis (reference value: 1.97%); format: functional
DU-145 [19] = experiment: Induction of apoptosis in human DU-145 cells assessed as late apoptotic cells at 0.3 uM incubated for 48 hrs by Annexin V-FITC/PI staining based flow cytometry analysis (reference value: 2.05%); format: functional
[20] = Toxicity in BALB/c nude mouse xenografted with human NCI-H1299 cells assessed as reduction in body weight at 10 to 20 mg/kg, po administered once daily and measured twice a week; format: organism-based; conditions: in vivo, dose 10-20 mg/kg
[21] = Toxicity in C57BL/6 mouse implanted with mouse B16-F10 cells assessed as […] at 20 mg/kg, po administered once daily and measured twice a week for 14 days; format: organism-based; conditions: in vivo, 336 h, time 14 day
BGC-823 = experiment: Antiproliferative activity against human BGC-823 cells assessed as inhibition of cell growth incubated for 72 hrs by MTT assay; format: functional, cell-based; conditions: BGC-823, 72 h
HGC-27 = experiment: Antiproliferative activity against human HGC-27 cells assessed as inhibition of cell growth incubated for 72 hrs by MTT assay; format: functional, cell-based; conditions: HGC-27, 72 h
[22] = Mutagenicity in Salmonella typhimurium TA-100 at 0.5 to 500 ug per plate incubated for 72 hrs in presence or absence of S9 fraction by Ames test; format: toxicity, Salmonella enterica subsp. enterica serovar Typhimurium; conditions: in vivo, dose 0.5-500 µg
[23] = Toxicity in specific pathogen-free Kunming mouse assessed as pathological changes in colon tissues at 10 mg/kg, po administered once daily and measured after 7 days by hematoxylin and eosin staining based analysis; format: organism-based; conditions: in vivo, 168 h, time 7 day
MCF7 = experiment: cells; conditions: Homo sapiens, MCF7, 72 h
Description: Antiproliferative activity against human MCF7 cells assessed as inhibition of cell growth incubated for 72 hrs by MTT assay

DU-145 [24] = experiment: Induction of G2/M phase cell cycle arrest in human DU-145 cells assessed as decrease in Cdc2 phosphorylation at T14/Y15 residue at 0.03 to 0.3 uM measured after 12 hrs by Western blot analysis; format: functional, cell-based; conditions: dose 0.03-0.3 µM
[25] = Tmax in Kunming mouse at 20 mg/kg, po by LC-MS/MS analysis; format: ADME, organism-based; conditions: in vivo
Tubulin (Homo sapiens) [26] = molecular target: T1, Tubulin (Homo sapiens); experiment: Inhibition of [3H]colchicine binding to tubulin (unknown origin) at 1 uM incubated for 2 hrs by TopCount scintillation counting method relative to control; format: protein-complex assay
DU-145 [27] = experiment: Induction of apoptosis in human DU-145 cells assessed as increase in cleaved PARP level at 0.003 to 0.3 uM incubated for 48 hrs by Western blot analysis; format: functional, cell-based; conditions: dose 0.003-0.3 µM
MDA-MB-231 = experiment: cells; conditions: Homo sapiens, MDA-MB-231, 72 h
[28] = Toxicity in specific pathogen-free Kunming mouse assessed as pathological changes in liver at 10 mg/kg, po administered once daily and measured after 7 days by hematoxylin and eosin staining based analysis; format: organism-based; conditions: in vivo, 168 h, time 7 day
[29] = Half life in Kunming mouse at 2 mg/kg, iv by LC-MS/MS analysis; format: ADME, organism-based; conditions: in vivo

Sequence of Sodium channel protein type 5 subunit alpha (Q14524 whole entry): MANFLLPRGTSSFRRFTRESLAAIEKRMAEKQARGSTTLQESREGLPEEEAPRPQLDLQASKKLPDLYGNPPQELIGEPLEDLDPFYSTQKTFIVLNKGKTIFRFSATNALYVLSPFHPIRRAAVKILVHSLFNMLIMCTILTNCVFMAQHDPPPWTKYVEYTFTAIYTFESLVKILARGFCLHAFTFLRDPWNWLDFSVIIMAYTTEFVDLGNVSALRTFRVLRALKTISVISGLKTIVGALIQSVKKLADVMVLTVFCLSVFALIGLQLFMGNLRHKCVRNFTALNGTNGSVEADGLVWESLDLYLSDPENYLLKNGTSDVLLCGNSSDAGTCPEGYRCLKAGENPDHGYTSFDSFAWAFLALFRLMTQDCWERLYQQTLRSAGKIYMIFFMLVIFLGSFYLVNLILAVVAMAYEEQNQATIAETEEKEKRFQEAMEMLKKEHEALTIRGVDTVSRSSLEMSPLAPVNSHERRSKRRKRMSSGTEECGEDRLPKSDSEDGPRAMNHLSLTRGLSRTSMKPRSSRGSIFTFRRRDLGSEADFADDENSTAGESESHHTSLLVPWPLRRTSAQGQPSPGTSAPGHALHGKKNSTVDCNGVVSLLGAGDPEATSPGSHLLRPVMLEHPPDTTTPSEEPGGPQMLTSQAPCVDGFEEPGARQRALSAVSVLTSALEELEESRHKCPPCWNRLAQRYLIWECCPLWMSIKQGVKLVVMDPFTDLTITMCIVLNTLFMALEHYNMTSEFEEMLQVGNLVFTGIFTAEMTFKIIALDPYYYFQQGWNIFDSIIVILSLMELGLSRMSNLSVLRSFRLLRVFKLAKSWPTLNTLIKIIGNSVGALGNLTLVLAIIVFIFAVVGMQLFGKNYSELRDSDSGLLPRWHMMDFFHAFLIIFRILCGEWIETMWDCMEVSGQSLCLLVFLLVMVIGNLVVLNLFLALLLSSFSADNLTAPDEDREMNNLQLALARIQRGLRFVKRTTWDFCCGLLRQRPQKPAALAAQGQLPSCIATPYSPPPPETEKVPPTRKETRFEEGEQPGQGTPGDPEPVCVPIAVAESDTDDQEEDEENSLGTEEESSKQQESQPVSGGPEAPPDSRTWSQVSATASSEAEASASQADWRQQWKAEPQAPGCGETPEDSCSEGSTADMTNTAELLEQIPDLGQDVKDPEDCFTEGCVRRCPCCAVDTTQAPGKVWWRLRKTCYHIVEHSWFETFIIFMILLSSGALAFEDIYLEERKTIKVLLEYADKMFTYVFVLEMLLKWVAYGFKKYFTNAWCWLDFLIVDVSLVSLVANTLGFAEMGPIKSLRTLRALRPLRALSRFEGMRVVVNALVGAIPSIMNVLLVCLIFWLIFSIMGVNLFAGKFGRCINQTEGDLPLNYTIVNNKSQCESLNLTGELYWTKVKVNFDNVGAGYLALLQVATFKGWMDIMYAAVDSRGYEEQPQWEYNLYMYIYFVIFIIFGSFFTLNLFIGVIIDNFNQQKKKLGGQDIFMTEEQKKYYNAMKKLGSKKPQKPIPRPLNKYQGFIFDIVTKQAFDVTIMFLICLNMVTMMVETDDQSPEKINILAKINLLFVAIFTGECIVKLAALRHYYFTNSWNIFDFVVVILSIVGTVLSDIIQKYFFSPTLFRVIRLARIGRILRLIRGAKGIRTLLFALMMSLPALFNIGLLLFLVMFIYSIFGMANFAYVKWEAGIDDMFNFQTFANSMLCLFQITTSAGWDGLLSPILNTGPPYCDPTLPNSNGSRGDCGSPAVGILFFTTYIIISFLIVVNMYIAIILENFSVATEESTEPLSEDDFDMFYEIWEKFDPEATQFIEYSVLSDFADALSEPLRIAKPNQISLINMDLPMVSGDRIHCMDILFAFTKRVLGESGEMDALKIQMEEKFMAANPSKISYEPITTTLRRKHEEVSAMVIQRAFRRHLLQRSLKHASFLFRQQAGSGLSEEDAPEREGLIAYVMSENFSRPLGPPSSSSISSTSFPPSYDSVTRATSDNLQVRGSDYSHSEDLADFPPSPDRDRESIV

Cc1ccc(S(=O)(=O)Nc2cc(C(=O)NCc3ccc(C)nc3)ccc2C)cc1
half-life [1]: 24 min | bioavailability [2]: 48.2% | IC50 at 48 h [3]: 40 nM | IC50 [4]: > 30000 nM | Activity (DU-145 [5]): 2.95% | Activity [6]: Non-Toxic | IC50 (B16-F10 [7]): 2 nM | IC50 (A549 [8]): 25 nM | IC50 (HCT-8): 22 nM | IC50 (SW1990): 15 nM | Activity (DU-145 [9]): 26.61% | Activity (Tubulin (Homo sapiens) [10]): Active | half-life [11]: 132 min | inhibition in vivo at 10 mg/kg (DU-145 [12]): 62.8% | Ratio IC50 [13]: 1.2 | Activity (DU-145 [14]): 5.51% | inhibition (Bos taurus): Dde | IC50 (DU-145 [15]): 4 nM | inhibition in vivo at 20 mg/kg (A549 [16]): 74.8% | inhibition in vivo at 20 mg/kg (B16-F10 [17]): 70.6% | Activity (NCI-H1299): 73.6% | Activity (DU-145 [18]): 13.66% | Activity (DU-145 [19]): 30.32% | Activity [20]: Toxic | Activity [21]: Toxic | IC50 (BGC-823): 21 nM | IC50 (HGC-27): 6 nM | Activity [22]: Non-Toxic | Activity [23]: Non-Toxic | IC50 (MCF7): 6 nM | Activity (DU-145 [24]): Active | Tmax [25]: 4.98 min | inhibition (Tubulin (Homo sapiens) [26]): 75% | Activity (DU-145 [27]): Active | IC50 (MDA-MB-231): 9 nM | Activity [28]: Non-Toxic | half-life [29]: 10.8 min
